Patent US11744841B2, “Use of trezastilbenoside in manufacture of product for treating and/or preventing disease of respiratory system” (KPC PHARMACEUTICALS, INC., priority 2019, dated 2023)
Where a name gives a salt, the structure may show the parent alone.

Assays:
[1] = system: excretion of phenol red from the mouse trachea; test: Excretion amount of phenol red from the mouse trachea (expectorant effects); format: in vivo, mice; details: trachea wash in 2 mL 5% NaHCO3, absorbance at 546 nm, n = 10
Description: 2.3 Effects on the Excretion Amount of Phenol Red from the Mouse Trachea (Expectorant Effects)
40 mice were taken and randomly divided into 4 groups as described in 2.1. The positive control group received ambroxol hydrochloride tablets at 20 mg/kg. After the mice were acclimatized for 3 days, they were administered intragastrically once a day continuously for 7 days. The administration volume was 20 mL/kg, and 30 min after the last administration, each mouse was intraperitoneally injected with 5% phenol red solution at 0.2 mL/20 g, sacrificed after 30 min, fixed supine, neck straightened, surrounding connective tissue stripped to expose the trachea, and dissected to separate out a section of trachea that was from below the thyroid cartilage to the bifurcation of the trachea. Each trachea section was put into a test tube pre-filled with 2 mL of 5% NaHCO3 solution, ultrasonically washed for 15 min to release the tracheal phenol red out from the trachea completely, and centrifuged at 1000 r/min for 15 min to obtain a supernatant. The absorbance values of the supernatant at 546 nm were measured by an enzyme reader, and converted into the phenol red content by being compared with standard curves of phenol red.
(§1) Experimental data were analyzed using SPSS17.0 software, and expressed as means±standard deviations (x±SD). When the homogeneity of variance was complied, LSD test was used to make comparison between groups; and when the homogeneity of variance was not complied, Dunnett's T3 test was used to make comparison between groups. A P-value less than 0.05 means a statistical significance, and a P-value less than 0.01 means a significant statistical significance.

[2] = system: allergic asthma in guinea pigs; test: Allergic asthma in guinea pigs (egg protein sensitisation and spray); format: in vivo; details: 1% egg protein spray, capped at 6 min
Description: 2.4 Effects on the Allergic Asthma in Guinea Pigs (Effects for Relieving Asthma)
40 guinea pigs, male and female each in half, having body weight of 250-280 g, were randomly divided into 4 groups as described in 2.1. The positive control group received aminophylline tablets at 100 mg/kg. After the guinea pigs were acclimatized for 3 days, they received 10% fresh egg protein solution at 10 mL/kg through an intraperitoneal injection. From the 15th day, it began to administer intragastrically to each group at 10 mL/kg. The negative control group received equal volume of 0.5% CMC-Na once per day continuously for 7 days. From the 17th day, it began to let the guinea pigs inhale 1% egg protein solution, by spraying through an asthma-inducing, for 15 min to elicit at 1-day intervals totally for 3 times. After the last irritation, the asthma latency in the guinea pigs, that is, the time from the beginning of spray to asthma attacks (cough, dyspnea, restlessness, convulsions, falling down or death), was recorded. For the guinea pigs which had not appeared asthma attack after 6 min, their latency was taken as 6 min.
as §1

[3] = system: cough response of mice induced by concentrated ammonia; test: Cough response of mice induced by concentrated ammonia (antitussive effects); format: in vivo; details: n = 10; for Number of coughs per 2 min: 25% ammonia spray; for Latency: cough latency, 25% ammonia spray 15 s, 1 h after last dose
Description: 2.1 Effects on the Cough Response of Mice Induced by Concentrated Ammonia (Antitussive Effects)
40 mice were taken and randomly divided into four groups, namely a negative control group (0.5% of CMC-Na: prepared before tests by weighting 5 g of CMC-Na into a beaker, adding 800 mL pure water thereto, stirring, heating, boiling, and cooling down, then using a measuring cylinder to adjust the volume to 1000 mL, to obtain the transparent, viscous liquid with a concentration of 0.5% for the preparation of test samples and solvent control. Such liquid prepared once and can be used for 5-7 days); a positive control group of codeine phosphate tablets at 60 mg/kg; Trezastilbenoside high dose (300 mg/kg) group; and Trezastilbenoside low dose (150 mg/kg) group. For each administration group, 0.5% CMC-Na was used for dissolving and diluting to a corresponding concentration. After the mice were accilimatized for 3 days, they were administered intragastrically once a day continuously for 7 days. The administration volume was 20 mL/kg, and 1 h after the last administration, the mice were placed one by one into a closed and dry container where the mist of 25% of concentrated ammonia was introduced into by spraying at constant pressure for 15 seconds to induce cough, then the cough latency and the number of coughs in mice during the 2-minute period were recorded thought observation.
as §1

[4] = system: cough in guinea pigs induced by citric acid spray; test: Cough in guinea pigs induced by citric acid spray (antitussive effects); format: in vivo; details: n = 10; for Number of coughs per 5 min: 17.5% citric acid spray; for Latency: cough latency, 17.5% citric acid spray 1 min, latency capped at 5 min
Description: 2.2 Effects on the Cough in Guinea Pigs Induced by Citric Acid Spray (Antitussive Effects)
Healthy and sensitive guinea pigs (a pre-selection was carried out one day before the experiments, to exclude the guinea pigs which coughed less than 10 times during the five-minute period), having body weight of 250-280 g, male and female each in half were taken, and randomly divided into groups as described in 2.1. After the guinea pigs were acclimatized for 3 days, they were administered intragastrically once a day continuously for 5 days, and at the fifth day 1 hour after the administration, the guinea pigs were placed inside a 3 L sealed glass bell jar where 17.5% citric acid was sprayed into at constant pressure for 1 minute by an ultrasonic nebulizer. The cough latency and the number of coughs of the guinea pigs during the 5-minute period were recorded though observation. For guinea pigs whose latency exceeded 5 min, it was recorded as 5 min.
as §1

[5] = system: ears swelling of mice induced by xylene; test: Ears swelling of mice induced by xylene (anti-inflammatory effects); format: in vivo; details: for Swelling degree: xylene 20 μL on right ear, 30 min, weight difference of 6 mm ear pieces
Description: 2.5 Effects on Ears Swelling of Mice Induced by Xylene (Anti-Inflammatory Effects)
40 mice were taken and randomly divided into 4 groups of 10 mice each as described in 2.1, in which intragastric administration was conducted at 10 mL/kg, the positive control group received dexamethasone acetate tablets at 5 mg/kg, and the negative control group received equal volume of 0.5% CMC-Na, once per day continuously for 7 days. At the night before the experiments, the mice were fasted but had access to water for 12 h. At the 7th day, 30 min after the administration, the mice were evenly smeared with the inflammatory agent xylene (20 μL for each mouse) at the front and back sides of right ears to cause inflammation, and killed by cervical dislocation after 30 min, with their both ears cut along the baseline of the auricle. The ear pieces of the same part of the both ears were punched out with a hole punch of 6 mm diameter, and weighted by an analytical balance. The difference between the weights of the two ears was the swelling degree (mg), and the swelling inhibition rate (%) was calculated. Swelling inhibition rate=(Average swelling degree of the control group−Average swelling degree of the administration group)/Average swelling degree of the control group 2.6 Statistical Methods:
as §1

[6] = safety researches, background statement; cited from earlier work
[7] = safety researches, background statement; cited from earlier work; remark: listed apart in the source
[8] = 60 mg/kg intragastric once a day for 7 days
[9] = 60 mg/kg intragastric once a day for 5 days
[10] = 150 mg/kg intragastric once a day for 7 days
[11] = 300 mg/kg intragastric once a day for 7 days
[12] = 150 mg/kg intragastric once a day for 5 days
[13] = 300 mg/kg intragastric once a day for 5 days
[14] = 150 mg/kg intragastric once per day for 7 days
[15] = 300 mg/kg intragastric once per day for 7 days

Which Phenol red concentration ([1]; ambroxol hydrochloride 20 mg/kg (positive control) intragastric once a day for 7 days) does the source give for Nc1c(Br)cc(Br)cc1CN[C@H]1CC[C@H](O)CC1 [Ambroxol hydrochloride tablet, Ambroxol hydrochloride, reference compound] here?
The Phenol red concentration was 4.23 ± 1.34 µg/mL.

For Cn1c(=O)c2[nH]cnc2n(C)c1=O [Aminophylline tablet, Aminophylline, reference compound], which “Latency” value ([2]; 100 mg/kg intragastric once per day for 7 days) is on record?
The value was 94.23 ± 31.55 s.

What does the source list for COc1ccc2c3c1O[C@H]1[C@@H](O)C=C[C@H]4[C@@H](C2)N(C)CC[C@@]341 [Codeine phosphate tablets, Codeine phosphate, reference compound]?
Number of coughs per 2 min [3, 8]: 15.13 ± 7.83; Latency [3, 8]: 56.23 ± 16.46 s; Number of coughs per 5 min [4, 9]: 7.83 ± 3.83; Latency [4, 9]: 130.48 ± 59.34 s

Which results are given for CC(=O)OCC(=O)[C@@]1(O)[C@H](C)C[C@H]2[C@@H]3CCC4=CC(=O)C=C[C@]4(C)[C@@]3(F)[C@@H](O)C[C@@]21C [Dexamethasone acetate tablet, Dexamethasone acetate, reference compound]?
Swelling degree ([5]; 5 mg/kg intragastric once per day for 7 days): 1.24 ± 0.67 mg; inhibition at 5 mg/kg ([5]; Mus musculus, po, 168 h, 5 mg/kg intragastric once per day for 7 days, relative to average swelling degree of control group, read-out: Swelling inhibition rate (%)): 65.9%

What does the source list for OC[C@H]1O[C@@H](Oc2cc(/C=C/c3cc(O)cc(O)c3)ccc2O)[C@H](O)[C@@H](O)[C@@H]1O [Trezastilbenoside]?
Number of coughs per 2 min [3, 10]: 25.88 ± 9.25; Number of coughs per 2 min [3, 11]: 19.63 ± 10.27; Latency [3, 10]: 41.23 ± 13.67 s; Latency [3, 11]: 48.56 ± 16.53 s; Number of coughs per 5 min [4, 12]: 13.88 ± 5.25; Number of coughs per 5 min [4, 13]: 9.63 ± 3.20; Latency [4, 12]: 104.35 ± 45.23 s; Latency [4, 13]: 116.78 ± 53.96 s; Phenol red concentration [1, 10]: 3.28 ± 1.20 µg/mL; Phenol red concentration [1, 11]: 3.88 ± 1.43 µg/mL; Latency [2, 14]: 69.28 ± 21.20 s; Latency [2, 15]: 83.68 ± 36.13 s; Swelling degree [5, 14]: 3.12 ± 2.52 mg; Swelling degree [5, 15]: 2.21 ± 1.45 mg; inhibition at 150 mg/kg ([5]; Mus musculus, po, 168 h, 150 mg/kg intragastric once per day for 7 days, relative to average swelling degree of control group, read-out: Swelling inhibition rate (%)): 14.3%; inhibition at 300 mg/kg ([5]; Mus musculus, po, 168 h, 300 mg/kg intragastric once per day for 7 days, relative to average swelling degree of control group, read-out: Swelling inhibition rate (%)): 39.3%; Toxic side reactions and death in acute toxicity tests [6]: no toxic side reactions and death occurred; Chromosome aberrations or mutagenesis in the genetic test [7]: no chromosome aberrations or mutagenesis were found
